Assay results reported in the supplement of paper PMC10307832.

Tests used:
Experiment in all cases: relative viability (nuclei count vs DMSO), 5 days (fraction); higher = more cells survive
Pemetrexed + Alpelisib = compound: Nc1nc2[nH]cc(CCc3ccc(C(=O)N[C@@H](CCC(=O)O)C(=O)O)cc3)c2c(=O)[nH]1 [Pemetrexed] + Cc1nc(NC(=O)N2CCC[C@H]2C(N)=O)sc1-c1ccnc(C(C)(C)C(F)(F)F)c1 [Alpelisib] (partner 2 µM)
Method in brief: (§1)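 Cells from lung cancer lines were seeded into 1536-well plates and, one day later, dosed by pin tool. Treatments were either a single drug or a fixed dose of an anchor drug with five library-drug doses (not always all listed) in √10 steps. After 5 days, nuclei were stained in a one-step fixation (final 0.05% Triton X-100, 1% formaldehyde, 1 ug/ml Hoechst) and counted on 4× images, and relative viability is the treated-to-vehicle nuclei ratio, as the median of duplicate plates.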

Idelalisib + Vorinostat = compound: CC[C@H](Nc1ncnc2[nH]cnc12)c1nc2cccc(F)c2c(=O)n1-c1ccccc1 [Idelalisib] + O=C(CCCCCCC(=O)Nc1ccccc1)NO [Vorinostat] (partner 1 µM)
Method in brief: as §1

Idelalisib + Linsitinib = compound: CC[C@H](Nc1ncnc2[nH]cnc12)c1nc2cccc(F)c2c(=O)n1-c1ccccc1 [Idelalisib] + C[C@]1(O)C[C@@H](c2nc(-c3ccc4ccc(-c5ccccc5)nc4c3)c3c(N)nccn32)C1 [Linsitinib] (partner 1 µM)
Method in brief: as §1

Pemetrexed + Navitoclax = compound: Nc1nc2[nH]cc(CCc3ccc(C(=O)N[C@@H](CCC(=O)O)C(=O)O)cc3)c2c(=O)[nH]1 [Pemetrexed] + CC1(C)CCC(c2ccc(Cl)cc2)=C(CN2CCN(c3ccc(C(=O)NS(=O)(=O)c4ccc(N[C@H](CCN5CCOCC5)CSc5ccccc5)c(S(=O)(=O)C(F)(F)F)c4)cc3)CC2)C1 [Navitoclax] (partner 0.5 µM)
Method in brief: as §1

Row | Cell Line | relative viability (Pemetrexed + Alpelisib; first compound 0.002 µM) | relative viability (Pemetrexed + Alpelisib; first compound 0.006325 µM) | relative viability (Pemetrexed + Alpelisib; first compound 0.02 µM) | relative viability (Pemetrexed + Alpelisib; first compound 0.06325 µM) | relative viability (Pemetrexed + Alpelisib; first compound 0.2 µM) | relative viability (Idelalisib + Vorinostat; first compound 0.04 µM) | relative viability (Idelalisib + Vorinostat; first compound 0.1265 µM) | relative viability (Idelalisib + Vorinostat; first compound 0.4 µM) | relative viability (Idelalisib + Vorinostat; first compound 1.265 µM) | relative viability (Idelalisib + Vorinostat; first compound 4 µM) | relative viability (Idelalisib + Linsitinib; first compound 0.04 µM) | relative viability (Idelalisib + Linsitinib; first compound 0.1265 µM) | relative viability (Idelalisib + Linsitinib; first compound 1.265 µM) | relative viability (Idelalisib + Linsitinib; first compound 4 µM) | relative viability (Pemetrexed + Navitoclax; first compound 0.002 µM) | relative viability (Pemetrexed + Navitoclax; first compound 0.006325 µM) | relative viability (Pemetrexed + Navitoclax; first compound 0.02 µM) | relative viability (Pemetrexed + Navitoclax; first compound 0.06325 µM) | relative viability (Pemetrexed + Navitoclax; first compound 0.2 µM) | relative viability (Idelalisib + Linsitinib; first compound 0.4 µM)
1 | HOP-62 | 0.842 | 0.868 | 0.896 | 0.847 | 0.957 | 0.669 | 0.66 | 0.576 | 0.619 | 0.491 | 1.04 | 1.04 | 1.07 | 0.884 | 1.03 | 1.01 | 1.19 | 0.906 | 0.894 | –
2 | LC-2-ad | 0.888 | 0.936 | 0.833 | 0.232 | 0.187 | 0.798 | 0.702 | 0.683 | 0.791 | 0.703 | 0.966 | 0.848 | 0.75 | 0.719 | 0.304 | 0.437 | 0.363 | 0.159 | 0.162 | 0.805
3 | SW 900 | – | – | – | – | – | 0.442 | 0.548 | 0.407 | 0.514 | 0.441 | – | – | – | – | – | – | – | – | – | –
4 | NCI-H322M | 0.814 | 0.724 | 0.813 | 0.776 | 0.773 | 1.03 | 0.993 | 0.799 | 0.899 | 0.911 | 0.971 | 0.924 | 0.642 | 0.692 | 1.16 | 1.25 | 1.17 | 1.15 | 1.14 | 0.801
5 | SK-LU-1 | 0.874 | 1.02 | 1.04 | 0.931 | 1.02 | 0.739 | 0.735 | 0.645 | 0.813 | 0.768 | 1.17 | 1.15 | 1.02 | 0.973 | 0.881 | 0.813 | 0.791 | 0.901 | 0.817 | 0.916
6 | NCI-H1734 | 0.694 | 0.731 | 0.629 | 0.632 | 0.698 | 0.914 | 0.846 | 0.627 | 0.642 | 0.755 | 0.944 | 0.814 | 0.791 | 0.597 | 0.826 | 0.817 | 0.933 | 0.813 | 0.656 | 0.765
7 | HCC-44 | 0.771 | 0.732 | 0.854 | 0.785 | 0.602 | 1.19 | 1.08 | 1.12 | 1.22 | 1.12 | 0.662 | 0.65 | 0.476 | 0.584 | 0.864 | 0.836 | 1.02 | 0.929 | 0.866 | 0.596
8 | NCI-H1703 | 0.319 | 0.38 | 0.333 | 0.338 | 0.379 | – | – | – | – | – | 1.31 | 0.976 | 1.2 | 0.474 | 1.04 | 0.967 | 1.86 | 1.24 | 1.09 | 0.669
9 | NCI-H2170 | 0.723 | 0.831 | 0.905 | 0.869 | 0.824 | 0.732 | 0.805 | 0.761 | 0.716 | 0.669 | – | – | – | – | 0.538 | 0.587 | 0.663 | 0.662 | 0.5 | –
10 | NCI-H1395 | 0.964 | 0.916 | 1.14 | 1.14 | 1.02 | 0.841 | 0.813 | 0.692 | 0.674 | 0.692 | 1.15 | 1.22 | 0.82 | 0.77 | 1.06 | 1.14 | 1.24 | 1.11 | 1.11 | 0.92
11 | NCI-H1355 | 0.805 | 0.768 | 0.822 | 0.843 | 0.858 | 0.628 | 0.662 | 0.512 | 0.612 | 0.548 | 0.893 | 0.789 | 0.701 | 0.596 | 0.86 | 0.885 | 0.951 | 0.942 | 0.872 | 0.599
12 | NCI-H1650 | – | – | – | – | – | 0.513 | 0.604 | 0.58 | 0.587 | 0.614 | – | – | – | – | 1.08 | 1.11 | 1.37 | 1.15 | 0.632 | –
13 | IA-LM | 0.797 | 0.716 | 0.737 | 0.771 | 0.67 | 0.607 | 0.907 | 0.913 | 1.02 | 0.944 | 0.426 | 0.83 | 0.541 | 0.404 | 0.773 | 0.798 | 0.856 | 0.711 | 0.483 | 0.709
14 | NCI-H1666 | 1.02 | 0.853 | 0.969 | 0.88 | 0.595 | 1.01 | 1.02 | 0.962 | 1.05 | 1.08 | 0.881 | 0.873 | 0.629 | 0.552 | 0.877 | 0.717 | 0.915 | 0.711 | 0.419 | 0.73
15 | HCC-78 | – | 0.316 | 0.324 | 0.228 | 0.174 | 0.462 | 0.448 | 0.393 | 0.468 | 0.332 | 0.254 | 0.514 | 0.45 | 0.226 | – | 0.646 | 0.547 | 0.242 | 0.207 | 0.346
